# Experimental data taken from US9115142B2, “Heterocycle-substituted piperazino-dihydrothienopyrimidines” (Boehringer Ingelheim International GmbH, priority 2007, dated 2015).
# Counter-ions that a name gives are not always drawn.
# Biological target: PDE4B (Homo sapiens, UniProt Q07343)
# Assay: Scintillation Proximity Assay (SPA) of PDE4B enzymatic activity ([H3]-cAMP cleavage)
# Format: biochemical
# Conditions: test substance 1 μM; one-hour incubation with [H3]-cAMP and PDE4B at 30° C.
# Procedure: The Scintillation Proximity Assay (SPA) (GE Healthcare, No. TRKQ7090) was carried out by using the different affinities of cyclic 3″-5″-adenosinemonophosphate (cAMP, low affinity) and linear 5″-adenosinemonophosphate (AMP, high affinity) for yttrium silicate scintillator beads. The cAMP specific phosphodiesterase (PDE) PDE4B cleaves the 3″-phosphoester bond of tritium-labelled [H3]-cAMP to form [H3]-5″-AMP. This [H3]-AMP accumulates on the scintillator beads because of its higher affinity for them and causes scintillation events (flashes of light) which are measured in a Wallac Microbeta Scintillation Counter.
# The experiment starts with a one-hour incubation of [H3]-cAMP with the PDE4B enzyme in assay buffer at 30° C., in each case once with the Example substance to be tested (in a concentration of 1 μM) and once without the Example substance to be tested.
# After this incubation, the reaction is stopped by the addition of the beads. The beads have an opportunity to settle in the next 45 minutes, then the measurement is carried out in the Scintillation Counter. If the substance is capable of inhibiting the enzymatic activity of the PDE4B, less [H3]-AMP is produced during the incubation phase and fewer scintillation events can be measured.
# Sequence of PDE4B (Q07343 whole entry, species assumed): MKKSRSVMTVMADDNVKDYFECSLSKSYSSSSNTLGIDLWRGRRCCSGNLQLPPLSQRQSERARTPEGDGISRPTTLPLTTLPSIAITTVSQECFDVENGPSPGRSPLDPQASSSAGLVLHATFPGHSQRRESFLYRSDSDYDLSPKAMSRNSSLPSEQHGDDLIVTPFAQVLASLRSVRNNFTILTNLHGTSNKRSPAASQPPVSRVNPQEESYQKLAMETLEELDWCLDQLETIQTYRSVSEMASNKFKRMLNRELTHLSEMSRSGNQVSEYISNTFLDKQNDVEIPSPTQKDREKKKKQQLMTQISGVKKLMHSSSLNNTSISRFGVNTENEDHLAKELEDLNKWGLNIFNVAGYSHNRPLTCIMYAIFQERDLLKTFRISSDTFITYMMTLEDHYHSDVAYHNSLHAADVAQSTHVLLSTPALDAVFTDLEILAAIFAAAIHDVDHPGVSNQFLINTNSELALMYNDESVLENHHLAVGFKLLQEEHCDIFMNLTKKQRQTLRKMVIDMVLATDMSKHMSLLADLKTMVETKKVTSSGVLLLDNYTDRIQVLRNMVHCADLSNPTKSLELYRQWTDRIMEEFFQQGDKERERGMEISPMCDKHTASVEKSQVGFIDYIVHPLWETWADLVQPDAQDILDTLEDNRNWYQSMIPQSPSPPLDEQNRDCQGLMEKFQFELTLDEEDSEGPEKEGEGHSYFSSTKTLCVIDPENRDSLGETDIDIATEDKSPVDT
row,Compound,inhibition at 1 µM
1,"[O-][S+]1CCc2nc(N3CCN(c4nccs4)CC3)nc(Nc3cccc(F)c3)c21 (stereo not shown) [Example 1, (3-fluorophenyl)-[5-oxo-2-(4-thiazol-2-yl-piperazin-1-yl)-6,7-dihydro-5H-5λ^4-thieno[3,2-d]pyrimidin-4-yl]-amine]",94%
2,"[O-][S+]1CCc2nc(N3CCN(c4nc5ccccc5o4)CC3)nc(Nc3cccc(F)c3)c21 (stereo not shown) [Example 3, [2-(4-benzoxazol-2-yl-piperazin-1-yl)-5-oxo-6,7-dihydro-5H-5λ^4-thieno[3,2-d]pyrimidin-4-yl]-(3-fluorophenyl)-amine]",95%
3,"[O-][S+]1CCc2nc(N3CCN(c4nc5ccccc5o4)CC3)nc(NC3CCOCC3)c21 (stereo not shown) [Example 5, [2-(4-benzoxazol-2-yl-piperazin-1-yl)-5-oxo-6,7-dihydro-5H-5λ^4-thieno[3,2-d]pyrimidin-4-yl]-(tetrahydropyran-4-yl)-amine]",96%
4,"CC(C)[C@H](CO)Nc1nc(N2CCN(c3nc4ccccc4o3)CC2)nc2c1[S+]([O-])CC2 (stereo partly drawn) [Example 10, (R)-2-[2-(4-benzoxazol-2-yl-piperazin-1-yl)-5-oxo-6,7-dihydro-5H-5λ^4-thieno[3,2-d]pyrimidin-4-ylamino]-3-methylbutan-1-ol]",94%
5,"CN(C)c1nnccc1N1CCN(c2nc3c(c(Nc4cccc(F)c4)n2)[S+]([O-])CC3)CC1 (stereo not shown) [Example 15, {2-[4-(3-dimethylaminopyridazin-4-yl)-piperazin-1-yl]-5-oxo-6,7-dihydro-5H-5λ^4-thieno[3,2-d]pyrimidin-4-yl}-(3-fluorophenyl)-amine]",97%
6,"[O-][S+]1CCc2nc(N3CCN(c4cc(Cl)nnc4O)CC3)nc(Nc3cccc(F)c3)c21 (stereo not shown) [Example 16, 6-chloro-4-{4-[4-(3-fluorophenylamino)-5-oxo-6,7-dihydro-5H-5λ^4-thieno[3,2-d]pyrimidin-2-yl]-piperazin-1-yl}-pyridazin-3-ol]",95%
7,"CCOCCOc1ccc(N2CCN(c3nc4c(c(Nc5cccc(F)c5)n3)[S+]([O-])CC4)CC2)nn1 (stereo not shown) [Example 17, (2-{4-[6-(2-ethoxyethoxy)-pyridazin-3-yl]-piperazin-1-yl}-5-oxo-6,7-dihydro-5H-5λ^4-thieno[3,2-d]pyrimidin-4-yl)-(3-fluorophenyl)-amine]",97%
8,"[O-][S+]1CCc2nc(N3CCN(c4ccnnc4)CC3)nc(Nc3cccc(F)c3)c21 (stereo not shown) [Example 18, (3-fluorophenyl)-[5-oxo-2-(4-pyridazin-4-yl-piperazin-1-yl) 6,7-dihydro-5H-5λ^4-thieno[3,2-d]pyrimidin-4-yl]-amine]",96%
9,"COc1cccc2c1nc(N1CCN(c3nc4c(c(N[C@@H](CO)C(C)C)n3)[S+]([O-])CC4)CC1)n2C (stereo partly drawn) [Example 23, (R)-2-{2-[4-(4-methoxy-1-methyl-1H-benzimidazol-2-yl)-piperazin-1-yl]-5-oxo-6,7-dihydro-5H-5λ^4-thieno[3,2-d]pyrimidin-4-ylamino}-3-methylbutan-1-ol]",83%
10,"CCN1CCc2ncc(N3CCN(c4nc5c(c(N[C@@H](CO)C(C)C)n4)[S+]([O-])CC5)CC3)nc2CC1 (stereo partly drawn) [Example 24, (R)-2-{2-[4-(7-ethyl-6,7,8,9-tetrahydro-5H-pyrazino[2,3-d]azepin-2-yl)-piperazin-1-yl]-5-oxo-6,7-dihydro-5H-5^4-thieno[3,2-d]pyrimidin-4-ylamino}-3-methylbutan-1-ol]",94%
11,"CC(C)[C@H](CO)Nc1nc(N2CCN(c3ccnnc3N(C)C)CC2)nc2c1[S+]([O-])CC2 (stereo partly drawn) [Example 36, (R)-2-{2-[4-(3-dimethylaminopyridazin-4-yl)-piperazin-1-yl]-5-oxo-6,7-dihydro-5H-5λ^4-thieno[3,2-d]pyrimidin-4-ylamino}-3-methylbutan-1-ol trifluoroacetate]",94%
12,CC(C)[C@H](CO)Nc1nc(N2CCN(c3cc(Cl)nnc3O)CC2)nc2c1[S+]([O-])CC2 (stereo partly shown) [Example 37],90%
13,"CCOCCOc1ccc(N2CCN(c3nc4c(c(N[C@@H](CO)C(C)C)n3)[S+]([O-])CC4)CC2)nn1 (stereo partly drawn) [Example 38, (R)-2-(2-{4-[6-(2-ethoxyethoxy)-pyridazin-3-yl]-piperazin-1-yl}-5-oxo-6,7-dihydro-5H-5λ^4-thieno[3,2-d]pyrimidin-4-ylamino)-3-methylbutan-1-ol trifluoroacetate]",96%
14,"Cn1c(N2CCN(c3nc4c(c(NC5CCOCC5)n3)[S+]([O-])CC4)CC2)nc2cc(F)ccc21 (stereo not shown) [Example 87, {2-[4-(5-fluoro-1-methyl-1H-benzoimidazol-2-yl)-piperazin-1-yl]-5-oxo-6,7-dihydro-5H-5λ^4-thieno[3,2-d]pyrimidin-4-yl}-(tetrahydropyran-4-yl)-amine]",96%
15,"COc1cccc2c1nc(N1CCN(c3nc4c(c(Nc5cccc(F)c5)n3)[S+]([O-])CC4)CC1)n2C (stereo not shown) [Example 108, (3-fluorophenyl)-{2-[4-(4-methoxy-1-methyl-1H-benzimidazol-2-yl)-piperazin-1-yl]-5-oxo-6,7-dihydro-5H-5λ^4-thieno[3,2-d]pyrimidin-4-yl}-amine trifluoroacetate]",95%

# Second part, the compound after the results:
row,inhibition at 1 µM,Compound
1,90%,"CC(C)[C@H](CO)Nc1nc(N2CCN(c3nccs3)CC2)nc2c1[S+]([O-])CC2 (stereo partly drawn) [Example 2, (R)-3-methyl-2-[5-oxo-2-(4-thiazol-2-yl-piperazin-1-yl)-6,7-dihydro-5H-5λ^4-thieno[3,2-d]pyrimidin-4-ylamino]-butan-1-ol]"
2,93%,"CC(C)[C@H](CO)Nc1nc(N2CCN(c3ccc(Cl)nn3)CC2)nc2c1[S+]([O-])CC2 (stereo partly drawn) [Example 6, (R)-2-{2-[4-(6-chlorpyridazin-3-yl)-piperazin-1-yl]-5-oxo-6,7-dihydro-5H-5λ^4-thieno[3,2-d]pyrimidin-4-ylamino}-3-methylbutan-1-ol]"
3,95%,"[O-][S+]1CCc2nc(N3CCN(c4ccc(Cl)nn4)CC3)nc(Nc3cccc(F)c3)c21 (stereo not shown) [Example 7, {2-[4-(6-chlorpyridazin-3-yl)-piperazin-1-yl]-5-oxo-6,7-dihydro-5H-5λ^4-thieno[3,2-d]pyrimidin-4-yl}-(3-fluorophenyl)-amine]"
4,95%,"[O-][S+]1CCc2nc(N3CCN(c4ccc(Cl)cn4)CC3)nc(NC3(CO)CC3)c21 (stereo not shown) [Example 13, (1-{2-[4-(5-Chloropyridin-2-yl)-piperazin-1-yl]-5-oxo-6,7-dihydro-5H-5λ^4-thieno[3,2-d]pyrimidin-4-ylamino}-cyclopropyl)-methanol]"
5,95%,"[O-][S+]1CCc2nc(N3CCN(c4ccc(Cl)cn4)CC3)nc(NC3CCOCC3)c21 (stereo not shown) [Example 14, {2-[4-(5-chloropyridin-2-yl)-piperazin-1-yl]-5-oxo-6,7-dihydro-5H-5λ^4-thieno[3,2-d]pyrimidin-4-yl}-(tetrahydropyran-4-yl)-amine]"
6,94%,"CC(C)[C@H](CO)Nc1nc(N2CCN(c3ccncn3)CC2)nc2c1[S+]([O-])CC2 (stereo partly drawn) [Example 28, (R)-3-methyl-2-[5-oxo-2-(4-pyrimidin-4-yl-piperazin-1-yl)-6,7-dihydro-5H-5λ^4-thieno[3,2-d]pyrimidin-4-ylamino]-butan-1-ol trifluoroacetate]"
7,94%,"CC(C)[C@H](CO)Nc1nc(N2CCN(c3ccnc(O)c3)CC2)nc2c1[S+]([O-])CC2 (stereo partly drawn) [Example 29, 4-{4-[4((R)-1-hydroxymethyl-2-methylpropylamino)-5-oxo-6,7-dihydro-5H-5λ^4-thieno[3,2-d]pyrimidin-2-yl]-piperazin-1-yl}-pyridin-2-ol]"
8,77%,"CC(C)[C@H](CO)Nc1nc(N2CCN(c3ccncc3)CC2)nc2c1[S+]([O-])CC2 (stereo partly drawn) [Example 32, (R)-3-methyl-2-[5-oxo-2-(4-pyridin-4-yl-piperazin-1-yl)-6,7-dihydro-5H-5λ^4-thieno[3,2-d]pyrimidin-4-ylamino]-butan-1-ol trifluoroacetate]"
9,92%,"CC(C)[C@H](CO)Nc1nc(N2CCN(c3ccnnc3)CC2)nc2c1[S+]([O-])CC2 (stereo partly drawn) [Example 39, (R)-3-methyl-2-[5-oxo-2-(4-pyridazin-4-yl-piperazin-1-yl)-6,7-dihydro-5H-5λ^4-thieno[3,2-d]pyrimidin-4-ylamino]-butan-1-ol trifluoroacetate]"
10,95%,"[O-][S+]1CCc2nc(N3CCN(c4ccncn4)CC3)nc(NC3(CO)CC3)c21 (stereo not shown) [Example 55, {1-[5-oxo-2-(4-pyrimidin-4-yl-piperazin-1-yl)-6,7-=dihydro-5H-5λ^4-thieno[3,2-d]pyrimidin-4-ylamino]-cyclopropyl}-methanol trifluoroacetate]"
11,91%,"[O-][S+]1CCc2nc(N3CCN(c4ccncc4)CC3)nc(NC3(CO)CC3)c21 (stereo not shown) [Example 58, {1-[5-oxo-2-(4-pyridin-4-yl-piperazin-1-yl)-6,7-dihydro-5H-5λ^4-thieno[3,2-d]pyrimidin-4-ylamino]-cyclopropyl}-methanol trifluoroacetate]"
12,96%,"CN1C[C@@H](Nc2nc(N3CCN(c4ccncn4)CC3)nc3c2[S+]([O-])CC3)CCC1=O (stereo partly drawn) [Example 71, (S)-1-methyl-5-[5-oxo-2-(4-pyrimidin-4-yl-piperazin-1-yl)-6,7-dihydro-5H-5λ^4-thieno[3,2-d]pyrimidin-4-ylamino]-piperidin-2-one]"
13,93%,"[O-][S+]1CCc2nc(N3CCN(c4ccncc4)CC3)nc(NC3CCOCC3)c21 (stereo not shown) [Example 96, [5-oxo-2-(4-pyridin-4-yl-piperazin-1-yl)-6,7-dihydro-5H-5λ^4-thieno[3,2-d]pyrimidin-4-yl]-(tetrahydropyran-4-yl)-amine trifluoroacetate]"
